Converted amounts (≈) assume the structure as drawn. Structures can show the parent of a compound that is named as a salt.
Experiments:
[1] = tested on: Mycobacterium tuberculosis; assay: Antituberculosis activity against Mycobacterium tuberculosis H37Rv assessed as inhibition of bacterial growth after 45 days; assay type: functional
HEK-293T = assay: Cytotoxicity against human 293T cells after 72 hrs by MTT assay; assay type: cell-based

Row | SMILES | MIC [1] [µM] | IC50 (HEK-293T) [µM]
1 | COC(=O)[C@H](Cc1cc2ccccc2[nH]1)NC(=O)Cn1cnc2c1c(=O)n(C)c(=O)n2C | 0.46 (≈ 0.202 µg/mL) | > 400
2 | C[C@H](NC(=O)Cn1cnc2c1c(=O)n(C)c(=O)n2C)C(=O)O | 0.65 (≈ 0.201 µg/mL) | > 400
3 | Cn1c(=O)c2c(ncn2CC(=O)N[C@@H](Cc2cc3ccccc3[nH]2)C(=O)O)n(C)c1=O | 0.47 (≈ 0.199 µg/mL) | > 400
4 | CC[C@@H](CO)NCCN[C@@H](CC)CO [ETHAMBUTOL HYDROCHLORIDE] | 7.22 | 

Reference: ChEMBL document CHEMBL3297704, “Theophylline-7-acetic acid derivatives with amino acids as anti-tuberculosis agents” (Bioorg Med Chem Lett, 2014)
